Laboratory results from PMC7275090, “Mode of action of teixobactins in cellular membranes” (Nature Communications, 2020).
Bridge positions count the residues as written; N and C are the ends. Square brackets hold non-standard residues; d marks the D form. Ends that are not written are not given here. d(aIle) = CC[C@H](C)[C@@H](N)C(=O)O; dNMeF = CN[C@H](Cc1ccccc1)C(=O)O

Tests used:
[1] = Isothermal titration calorimetry: LUVs containing Lys-Lipid II titrated into [R4L10]-teixobactin; assay type: binding; conditions: neutral DOPC membranes, LUVs 2% (mol/mol) Lys-Lipid II, citrate phosphate buffer pH ~6, 37 °C, 65 μM peptide in cell; read-out: equilibrium dissociation constant Kd
Procedure: Preparation of liposomes: For ITC measurements large unilamellar vesicles (LUVs) containing Lys-Lipid II were prepared by incorporating 2% (mol/mol) of Lys-Lipid II in DOPC from the stock solution. The lipids were dried by nitrogen stream and hydrated with 10 mM HEPES, 150 mM NaCl, pH 7.5 buffer to a lipid-phosphate concentration of ~20 mM. LUVs were obtained after 10 rounds of extrusion through 200 nm membrane filters (Whatman Nuclepore, Track-Etch Membranes). The liposomes were dialysed to citrate phosphate buffer (100 mM NaCl, 50 mM citric acid, 100 mM Na2HPO4, pH ~6). Anionic LUVs were prepared by mixing 25% (mol/mol) DOPG and 75% (mol/mol) DOPC and then incorporating 2% (mol/mol) Lys-Lipid II. All other steps were the same as for zwitterionic LUVs.
ITC was performed with the Low Volume NanoITC (Waters LLC, New Castle, DE, USA) to determine interaction between LUVs and [R4L10]-teixobactin. [R4L10]-teixobactin was diluted in a citrate phosphate buffer (100 mM NaCl, 50 mM citric acid, 100 mM Na2HPO4, pH ~6) to a final concentration of 65 μM. Samples were degassed before use. The chamber was filled with 164 μL of [R4L10]-teixobactin, and the LUVs were titrated into the chamber at a rate of 1.96 μL/300 s with a stirring rate of 300 rpm. Experiments were performed at 37 °C and analysed using the Nano Analyse Software (Waters LLC). […]

[2] = Pyrene excimer fluorescence of pyrene-labelled Lipid II in DOPC LUVs (oligomerisation); conditions: 0.5 mol% pyrene-Lipid II, pH 8.0, 20 °C
Procedure: The oligomerisation of fluorescent pyrene-labelled Lipid II was observed upon binding of [R4L10]-teixobactin. DOPC LUVs containing 0.5 (mol%) of pyrene-labelled Lipid II in buffer (10 mM Tris–Cl, 100 mM NaCl, pH 8.0) were prepared as described above. All fluorescence experiments were performed with a Cary Eclipse (FL0904M005) fluorometer. All samples (1.0 mL) were continuously stirred in a 10 × 4-mm quartz cuvette and kept at 20 °C. [R4L10]-teixobactin was titrated to the LUVs. Pyrene fluorescence was followed with spectral recordings between 360 and 550 nm (λex 350 nm, bandwidth 5 nm). The emission at 380 and 495 nm was recorded and averaged over 50 s, to obtain the values for the monomer and excimer intensity, respectively, to determine the excimer over monomer ratio for all conditions. […]
398, and 417 nm. Moreover, pyrene can display a characteristic fluorescence peak at longer wavelengths (490 nm), which occurs only when two pyrene rings reside within 10 Å of each other and form an excited state dimer, which known as an excimer.2 Source data are provided as a Source Data file. a) Fluorescence spectra of pyrene-labelled Lipid II symmetrically in large unilamellar vesicles (LUVs) at increasing concentrations of [R4L10]-teixobactin. […]
c) Quantification of the excimer over monomer ratio as a function of the pyrene-labelled Lipid II concentration. […]

[3] = ssNMR 15N T1rho relaxation (dynamics of bound teixobactin), Lys-Lipid I; conditions: bound to Lys-Lipid I in DOPC (Lys-LI PC), 950 MHz, 60 kHz MAS
Procedure: Relaxation studies: ^1H-detected ^15N T1rho relaxation experiments were carried out at 950 and 700 MHz magnetic field, respectively, using 60 kHz MAS[51]. The ^15N transverse magnetization decay was probed with a ^15N spinlock field of 17.5 kHz. For the bulk, we measured the intensity of the most intense signal at ~8.80 ^1H ppm. T1rho trajectories were fit to single exponentials.
Lipid I or II-doped multi-laminar vesicle preparations: DOPC or DOPG lipids were mixed with Lipid I or II in 1:1 MeOH:CHCl3 at the final Lipid I or II molar ratio (0–4 mol%/mol). The mixtures were dried and the lipid films were hydrated by vortexing with 2 mL of a teixobactin solution in 40 mM phosphate, 25 mM NaCl, pH 7.0.
SSNMR samples: MLVs were collected by centrifugation (20,000×g) and loaded into ssNMR rotors. For 3.2 mm rotors, we used 800 nmol of antibiotic with unlabelled Lipid II or I, while we used 400 nmol with labelled Lipid II. For 1.3 mm rotors, samples contained 200 nmol of antibiotic for unlabelled Lipid II or I, while we used 100 nmol for labelled Lipid II. For all ssNMR samples, we used 4 mol%/mol Lipid II or I in the MLVs.

[4] = Mobility-edited ssNMR: membrane topology of Lipid II-bound teixobactin; conditions: 2D 1H(1H)13C, 700 MHz, 300 K
Procedure: Topological studies: The mobility-edited 2D ^1H(^1H)^13C experiment[22] was performed at 700 MHz with 16.5 kHz MAS at 300 K temperature using a T2 relaxation filter of 2.5 ms. After dephasing of the rigid signals, magnetization from mobile lipid and water molecules was transferred to the rigid antibiotic with 5 ms ^1H–^1H mixing, and subsequently transferred to ^13C nuclei of [R4L10]-teixobactin with a short (200 μs) cross-polarization step.

[5] = Fluorescence microscopy of GUVs doped with NBD-labelled Lipid II (Lipid II clustering); conditions: 1 μM peptide, 4 h
Procedure: GUVs were prepared using the electroformation method. The GUV cell is a self-assembled system which consists of a 5 mm-thick Teflon plate which is aligned with two titanium electrodes in a closed Teflon chamber. 1.5 μL of 0.5 mM DOPC doped with NBD-labelled Lipid II (0.1 mol%) were brushed on the electrodes. Next, the chamber was filled with 350 μL 0.1 M sucrose solution; the electrodes dipped in and then connected to a power supply which generated a sine wave of voltage 2.5 V at a frequency of 10 Hz for 90 min. Each microscopy slide (μ-slide 8 well, Ibidi) was covered with 350 μL BSA solution (1 mg/mL). To detach the GUVs from the electrodes the power supply was changed to square wave of voltage 2 V at a frequency of 2 Hz for 15 min. The slides were immersed in 300 μL 0.1 mM glucose solution to which 80 μL of GUVs were added. These were incubated for 4 h with 1 μM [R4L10]-teixobactin and observed by confocal microscopy. Anionic GUVs were prepared using a homemade electroformation setup with ITO coverslips (18 × 18 mm, 15–30 Ω, SPI supplies). On both slips, 3 μL of a chloroform–methanol (1:1, vol/vol) solution containing 1 mM of a 3:1 mixture of DOPC:DOPG (mol/mol) and 0.1 mol% NBD-labelled Lipid II was deposited and dried in a vacuum desiccator. With these slips, the electroformation chamber was assembled and filled with 0.1 M sucrose solution. The GUV cell was connected to the power supply and an alternating current applied (1 V, 10 Hz). GUV formation was carried out overnight.
Microscopy: GUVs were imaged using Zeiss LSM 880 with ×63/1.2NA glycerol objective lens. The NBD label appeared green upon excitation by the 488 nm laser. The emission range for detection was 530–545 nm (λem peak = 539 nm). The brightfield images were used for detection and location of the GUVs without a fluorescent signal and also as a control to observe their shape.

D-Arg4-Leu10-teixobactin ([dNMeF]IS[dR][d(aIle)]IS[dT]ALI; ester 8-C; also: 13C,15N labels at Ile2, Ser3, Ile6, Ser7 and one Ala (residue not fully stated)) [[R4L10]-teixobactin]
Kd [1]: 170 nM
speed of Lipid II oligomerization after addition [2]: virtually immediately
Bulk 15N R1rho [3]: 21.70 s⁻¹
Bulk 15N T1rho [3]: 46.09 ms
membrane localization of Lipid II-bound peptide [4]: localizes at the water–membrane interface with the non-polar residues Ile2 and Ile6 partitioned in the bilayer
Lipid II segregation into clusters on GUVs ([5]; DOPC GUVs, 0.1 mol% NBD-Lipid II): Lipid II segregated into μm-sized clusters
vesicle integrity and morphology after incubation ([5]; DOPC GUVs, brightfield images, cluster sites show slight membrane deformations): morphology is maintained
Clustering of Lipid II in anionic membranes ([5]; anionic GUVs 1:3 DOPG:DOPC (mol/mol), 0.1 mol% NBD-Lipid II): clearly visible
